Earlier results as cited in patent US9629875B2, “Clostridium difficile sporicidal compositions” (Microdermis Corporation, priority 2014, dated 2017).

Test system: Bacillus subtilis
Details: 0.1% L-alanine in the absence of sporicidal agents, after 4 hours

Q: Which “colony-forming unit (CFU) relative count” value does the source give for `C[C@H](N)C(=O)O` [L-alanine] here?
A: The value was 116%.
